In article PMC6135396, “Repurposing antimalarial aminoquinolines and related compounds for treatment of retinal neovascularization” (PLoS ONE, 2018):

Experiments:
APJ = molecular target: T1, APJ (Homo sapiens, UniProt P35414); assay: APJ cAMP assay (primary, cAMP HitHunter, CHO-K1-APJ cells); type: cell-based; design: host or cells: CHO-K1 (CHO-K1-APJ / CHO-k1-AGTRL1)
T1 sequence (P35414 1-380): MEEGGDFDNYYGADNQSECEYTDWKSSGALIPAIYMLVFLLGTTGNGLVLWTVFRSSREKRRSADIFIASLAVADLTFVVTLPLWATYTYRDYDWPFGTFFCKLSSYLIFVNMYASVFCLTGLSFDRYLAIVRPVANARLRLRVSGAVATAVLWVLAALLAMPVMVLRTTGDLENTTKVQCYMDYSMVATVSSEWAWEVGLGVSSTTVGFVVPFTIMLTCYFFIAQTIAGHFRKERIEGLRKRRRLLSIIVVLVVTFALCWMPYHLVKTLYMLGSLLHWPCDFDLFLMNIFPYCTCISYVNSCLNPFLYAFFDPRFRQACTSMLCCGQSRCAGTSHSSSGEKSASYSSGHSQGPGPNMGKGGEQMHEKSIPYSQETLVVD
Experimental: To identify small-molecule antagonists of the apelin receptor (APJ) we interrogated the SBP compound file of ~425,000 compounds using CHO-k1-AGTRL1 cells overexpressing human APJ and a competitive immunoassay of intracellular cAMP [59]. The compound file was screened at a concentration of 10 μM. For all 333 plates assayed, the average Z-factor = 0.68 and the average S/B = 8.2, indicating a robust assay performance. […] There were 2550 compounds that met this criterion, representing a hit rate of ~0.6%. […] Included in this hit set was a series of aminoquinolines, exemplified by compound 1 (Fig 1B). […] As part of an initial hit-validation strategy, these compounds and three other commercially available analogs were purchased for further testing. The purity and identify of all compounds were confirmed by NMR and LC-MS, and they were subsequently retested in a battery of cell-based assays of APJ function and counter screens. […] (Fig 1D).
PathHunter™ GPCR Arrestin and cAMP Hunter™ cell lines (DiscoveRx Corp., Fremont, CA) were used to assay G-protein-dependent signaling and β-arrestin recruitment to APJ. CHO-K1 cells stably expressing APJ (CHO-K1-APJ) or AT1 (CHO-K1-AT1) with β-arrestin/β-galactosidase enzyme fragment complementation constructs were maintained in HAM's F-12 medium (Hyclone, Logan, UT) supplemented with 10% FBS, 1X Penicillin-Streptomycin-Glutamine (Invitrogen; Carlsbad, CA), 300 μg/ml hygromycin (EMD Biosciences, San Diego, CA), and 800 μg/ml Geneticin (Cellgro, Manassas, VA). Primary Human Retinal Microvascular Endothelial Cells (HRECs) were purchased from Cell Systems (Kirkland, WA) and maintained in Complete Classic Medium with CultureBoost-R™ (Cell Systems). Parent CHO-K1 cells were obtained from ATCC and maintained in HAM’s F-12 medium supplemented with 10% FBS, and1X Penicillin-Streptomycin-Glutamine (Invitrogen; Carlsbad, CA). All cells were incubated at 37°C (5% CO2, 95% relative humidity) and maintained at less than 70% to 80% confluence (approximately 75,000 cells/cm^2). Cell heterologously expressing APJ or AT1 were not used after 10 passages. HRECs were not used in any experiments after five passages.
All reagents unless otherwise specified are components of the cAMP HitHunter (DiscoveRx) kit. Ligand Buffer + 60 μM Forskolin (Cayman Chemical, Ann Arbor, MI) was made fresh on the day of the experiment and used for the dilution of positive and negative controls as well as all peptides. CHO-K1-APJ cells were dispensed into a 1536-well tissue culture microplate (Corning, Corning, NY) using a Multidrop at a seeding density of 1,000 cells/well and returned to the incubator. The next day, the cell culture media was removed and replaced with 15 μl/well of assay buffer (1X HBSS, 10 mM HEPES) containing anti-cAMP antibody (DiscoveRx). […] Plates were incubated at room temperature in the dark for 3 hours prior to chemiluminescence detection on an EnVision (Perkin Elmer) using a counting time of 1 s/well.

[1] = Plasma-protein binding, mouse; type: in vitro ADME
[2] = system: human retinal microvascular endothelial cells (HRECs); assay: In vitro HREC tube formation assay; type: cell-based
Experimental: In vitro tube formation assays were carried out as previously described. Briefly, near confluent microvascular endothelial cells were pretreated with VEGF (100 ng/ml) for 2 h and then treated for 24 h with test compounds at serial concentrations, as indicated. Cells without VEGF treatment or with VEGF only were used as control. The cells were then detached and plated sparsely (2.5 ×10^4/well) on 24-well plates coated with 12.5% (v/v) Matrigel (BD, Franklin Lakes, NJ) and left overnight. The medium was then aspirated and 250 μl/well of 12.5% Matrigel was overlaid on the cells for 2 h to allow the polymerization of Matrigel, followed by addition of 500 μl/well of basal medium MCD131 with 10% fetal calf serum (FCS) for 24 h. The following day, the culture plates were observed under a phase contrast microscope and photographed at random in five fields (×10). The tubule length (mm/mm^2) per microscope field was quantified.

LogD (pH 7.4) = type: physicochemical

In the case of `CCN(CC)Cc1cc(Nc2ccnc3cc(Cl)ccc23)ccc1O` [AQ, amodiaquine], the IC50 (APJ) is reported as 3.45 ± 0.028 µM, the “Mode of APJ antagonism” value (APJ; Ap13 concentration response curves after pre-incubation with AQ, Schild-type analysis) is reported as “non-competitive APJ antagonist” and the Plasma-protein binding ([1]; 1 μM) is reported as 81.9 % bound. The Plasma-protein binding ([1]; 10 μM) was 70.8 % bound, the “Effect on Ap13-dependent increase in HREC tube formation” value ([2]; Ap13-induced, concentration-dependent) was “blocked Ap13-dependent increases in tube formation” and the “Effect on VEGF-induced HREC tube formation” value ([2]; VEGF 100 ng/mL, absence of exogenous Ap13) was “blocked VEGF-induced tube formation”. It also gave a logD (LogD (pH 7.4)) of 2.37.
